In patent publication US9448237B2, “Modified tyrosine amino acids, peptides containing them, and their use for detecting hydrolase enzyme activity” (PAMGENE B.V., priority 2011, dated 2016):

Key:
[1] = biological target: phosphatase PTP1B (Homo sapiens, UniProt P18031); conditions: spotted with 1 mM peptide solution; one hour incubation with PTP1B in Tris-buffer containing DTT; FIG. 7
Method: After one hour incubation with phosphatase PTP1B in a Tris-buffer containing DTT, the microarray was washed and treated with a solution of PY20 antibody. […] The left image: not treated with PTP1B. The right image: treated with PTP1B.

[2] = system: phosphatase; conditions: FIG. 5
Method: A Tris buffer (25 μL, 50 mM, pH 7.4, modified with 0.5 mM DTT) was used to dissolve the appropriate phosphatase (20-100 ng) together with BSA (0.25 μL, 10 mg/mL), anti-nitrotyrosine antibody (0.5 μL, 0.5 mg/mL in PBS pH 7.4), FITC-goat-anti-mouse antibody (0.5 μL, 4 μg/mL). The resulting mixture was added to Pamchip® microarrays and the fluorescence imaged in real time using a Pamstation® PS12 instrument. The images were analyzed using the Bionavigator software package (Pamgene International BV, 's-Hertogenbosch, The Netherlands).
To the mixture described in Example 14, a 1 μL amount of sodium vanadate solutions with appropriate concentration was added.

phosphatase PTP1B, sequence (P18031 whole entry): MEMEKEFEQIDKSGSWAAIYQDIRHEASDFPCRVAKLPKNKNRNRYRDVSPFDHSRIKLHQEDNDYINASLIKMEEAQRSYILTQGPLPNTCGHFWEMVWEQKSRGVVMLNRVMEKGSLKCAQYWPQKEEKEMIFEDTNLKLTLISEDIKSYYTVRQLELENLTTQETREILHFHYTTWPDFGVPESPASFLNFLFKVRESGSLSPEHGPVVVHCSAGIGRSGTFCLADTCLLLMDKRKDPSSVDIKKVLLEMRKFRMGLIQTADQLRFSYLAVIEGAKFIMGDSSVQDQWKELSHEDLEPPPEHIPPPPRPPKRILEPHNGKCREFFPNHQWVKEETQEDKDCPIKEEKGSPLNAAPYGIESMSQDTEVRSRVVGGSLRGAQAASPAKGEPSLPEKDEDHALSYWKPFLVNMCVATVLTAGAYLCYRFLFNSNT

Substance	recognition as substrate and dephosphorylation by phosphatase [1]	inhibition of the phosphatase enzyme activity [2]
H-CDADE-(3-Br-pY)-LIPQQG-NH2 [3-bromo-phosphotyrosine peptide]	recognized by the phosphatase and dephosphorylated equally well	–
sodium ortho-vanadate	–	concentration dependent inhibition
